For one molecule, remaining activity results are on record in PMC4979471 (Cell Death Discovery, 2015).

Where two headings read alike, the source gives them in different places.

Experiment in all cases: Kinase selectivity, P33-radiolabeled assay
Common to all, as to type: biochemical
Settings in all cases: 10 μM ATP

One experiment addresses T1, MST1/STK4 (Homo sapiens, UniProt Q13043).
T1 construct: purchased Reaction Biology Corp
T1 sequence (Q13043 1-487): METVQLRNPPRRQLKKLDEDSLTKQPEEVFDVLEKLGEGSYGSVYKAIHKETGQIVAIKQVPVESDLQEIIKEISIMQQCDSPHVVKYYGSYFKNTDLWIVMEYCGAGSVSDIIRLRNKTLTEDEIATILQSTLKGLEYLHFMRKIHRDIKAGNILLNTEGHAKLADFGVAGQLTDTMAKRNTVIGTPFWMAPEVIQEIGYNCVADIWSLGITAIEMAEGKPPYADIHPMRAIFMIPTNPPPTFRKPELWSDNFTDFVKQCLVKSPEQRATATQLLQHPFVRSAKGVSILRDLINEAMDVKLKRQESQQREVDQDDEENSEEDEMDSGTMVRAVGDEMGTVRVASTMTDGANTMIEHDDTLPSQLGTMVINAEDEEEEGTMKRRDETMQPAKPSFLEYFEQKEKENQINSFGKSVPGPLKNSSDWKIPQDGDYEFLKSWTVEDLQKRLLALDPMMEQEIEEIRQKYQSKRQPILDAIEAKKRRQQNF
The method, boiled down:
(§1)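 Reactions contained 10 μM ATP and 10 μM test compound, each run in duplicate. Kinase activity is expressed as a percentage of DMSO-treated controls.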

A further experiment concerns the target T2, STK25/YSK1 (Homo sapiens, UniProt O00506).
T2 construct: purchased Reaction Biology Corp
The procedure, abridged:
as §1

The next experiment deals with T3, ASK1/MAP3K5 (Homo sapiens, UniProt Q99683).
T3 construct: purchased Reaction Biology Corp
T3 sequence (Q99683 1-1374): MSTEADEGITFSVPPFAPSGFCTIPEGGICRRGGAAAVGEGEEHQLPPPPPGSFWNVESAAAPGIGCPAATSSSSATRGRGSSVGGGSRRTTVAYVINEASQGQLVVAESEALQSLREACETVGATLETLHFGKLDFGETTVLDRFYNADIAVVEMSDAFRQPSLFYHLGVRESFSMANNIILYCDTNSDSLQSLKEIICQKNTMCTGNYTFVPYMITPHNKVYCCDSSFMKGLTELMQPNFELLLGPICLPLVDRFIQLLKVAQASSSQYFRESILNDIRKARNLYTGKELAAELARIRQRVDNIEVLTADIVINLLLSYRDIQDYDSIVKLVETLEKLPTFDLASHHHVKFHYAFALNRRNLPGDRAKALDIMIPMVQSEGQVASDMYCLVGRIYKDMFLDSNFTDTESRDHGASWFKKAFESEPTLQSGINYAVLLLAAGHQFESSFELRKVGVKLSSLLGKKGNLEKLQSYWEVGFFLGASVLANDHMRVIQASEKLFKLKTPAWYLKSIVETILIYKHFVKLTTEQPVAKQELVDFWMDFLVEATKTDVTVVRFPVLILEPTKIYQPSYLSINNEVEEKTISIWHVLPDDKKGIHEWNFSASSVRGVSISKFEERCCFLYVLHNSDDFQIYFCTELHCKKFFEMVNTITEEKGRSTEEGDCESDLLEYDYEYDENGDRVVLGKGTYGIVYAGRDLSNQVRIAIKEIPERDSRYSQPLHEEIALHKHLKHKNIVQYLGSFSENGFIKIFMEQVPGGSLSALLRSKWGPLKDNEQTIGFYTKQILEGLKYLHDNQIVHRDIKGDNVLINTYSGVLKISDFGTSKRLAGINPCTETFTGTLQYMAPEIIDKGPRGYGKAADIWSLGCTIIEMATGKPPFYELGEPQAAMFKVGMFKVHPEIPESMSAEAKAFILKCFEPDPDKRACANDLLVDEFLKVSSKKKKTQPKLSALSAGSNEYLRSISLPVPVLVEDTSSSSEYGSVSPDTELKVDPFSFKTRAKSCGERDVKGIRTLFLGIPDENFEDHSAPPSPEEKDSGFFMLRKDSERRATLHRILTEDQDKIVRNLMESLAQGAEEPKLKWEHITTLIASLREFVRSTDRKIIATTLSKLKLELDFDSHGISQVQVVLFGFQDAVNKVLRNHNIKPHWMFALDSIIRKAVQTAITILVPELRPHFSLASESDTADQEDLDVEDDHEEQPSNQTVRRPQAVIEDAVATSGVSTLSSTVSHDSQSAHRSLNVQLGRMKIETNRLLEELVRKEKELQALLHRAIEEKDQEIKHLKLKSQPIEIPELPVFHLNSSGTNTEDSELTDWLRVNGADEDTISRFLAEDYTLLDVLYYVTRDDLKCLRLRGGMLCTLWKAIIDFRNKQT
The method, boiled down:
as §1

In the next experiment the target is T4, COT1/MAP3K8 (Homo sapiens, UniProt P41279).
T4 construct: purchased Reaction Biology Corp
The procedure, abridged: as §1

Another experiment concerns the target T5, TGFBR2 (Homo sapiens, UniProt P37173).
T5 construct: purchased Reaction Biology Corp
The method, boiled down: as §1

In a further experiment the target is T6, MKK4 (Homo sapiens, UniProt P45985).
T6 construct: purchased Reaction Biology Corp
T6 sequence (P45985 1-399): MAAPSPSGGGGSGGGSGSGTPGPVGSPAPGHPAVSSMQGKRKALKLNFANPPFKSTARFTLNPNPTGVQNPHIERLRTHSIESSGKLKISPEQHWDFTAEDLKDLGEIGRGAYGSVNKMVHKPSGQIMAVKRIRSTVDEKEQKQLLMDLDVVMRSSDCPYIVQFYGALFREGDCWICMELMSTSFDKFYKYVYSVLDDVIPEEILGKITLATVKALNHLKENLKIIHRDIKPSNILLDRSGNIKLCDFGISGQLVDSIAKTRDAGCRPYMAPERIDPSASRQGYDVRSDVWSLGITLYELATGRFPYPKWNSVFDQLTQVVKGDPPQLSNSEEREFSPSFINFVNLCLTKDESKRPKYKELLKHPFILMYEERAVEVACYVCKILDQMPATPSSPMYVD
The procedure, abridged:
as §1

The mark [1] stands for this setting: read-out: % Enzyme Activity (relative to DMSO controls) AVG.
Where [2] appears, read: read-out: % Enzyme Activity (relative to DMSO controls) Data 1.
[3] abbreviates: read-out: % Enzyme Activity (relative to DMSO controls) Data 2.

T2 sequence (O00506 whole entry): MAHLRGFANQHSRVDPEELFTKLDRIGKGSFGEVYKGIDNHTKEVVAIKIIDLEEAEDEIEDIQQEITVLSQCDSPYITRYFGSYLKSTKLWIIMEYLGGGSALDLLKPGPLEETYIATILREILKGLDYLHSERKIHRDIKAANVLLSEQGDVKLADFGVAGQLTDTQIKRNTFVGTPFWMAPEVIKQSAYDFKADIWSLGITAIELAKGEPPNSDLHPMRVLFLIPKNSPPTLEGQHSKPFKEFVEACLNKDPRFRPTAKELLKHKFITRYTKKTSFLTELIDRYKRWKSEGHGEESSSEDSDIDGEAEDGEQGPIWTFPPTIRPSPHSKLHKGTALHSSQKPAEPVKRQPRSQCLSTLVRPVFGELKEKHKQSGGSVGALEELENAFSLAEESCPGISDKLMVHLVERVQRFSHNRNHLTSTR
T5 sequence (P37173 23-567): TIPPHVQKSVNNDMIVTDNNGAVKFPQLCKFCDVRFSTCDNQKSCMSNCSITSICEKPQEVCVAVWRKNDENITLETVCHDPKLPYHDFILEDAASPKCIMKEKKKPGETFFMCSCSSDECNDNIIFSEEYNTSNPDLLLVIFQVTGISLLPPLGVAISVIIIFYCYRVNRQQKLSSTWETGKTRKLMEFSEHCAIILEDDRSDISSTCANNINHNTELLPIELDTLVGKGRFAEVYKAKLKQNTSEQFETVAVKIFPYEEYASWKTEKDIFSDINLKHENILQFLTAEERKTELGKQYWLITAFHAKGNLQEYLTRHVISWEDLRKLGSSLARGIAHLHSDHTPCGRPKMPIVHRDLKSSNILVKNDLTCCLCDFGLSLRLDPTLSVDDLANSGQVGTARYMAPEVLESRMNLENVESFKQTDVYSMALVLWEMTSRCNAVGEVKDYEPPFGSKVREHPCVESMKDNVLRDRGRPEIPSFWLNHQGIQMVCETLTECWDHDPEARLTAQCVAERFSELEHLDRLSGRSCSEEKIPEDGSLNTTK
T4 sequence (P41279 whole entry): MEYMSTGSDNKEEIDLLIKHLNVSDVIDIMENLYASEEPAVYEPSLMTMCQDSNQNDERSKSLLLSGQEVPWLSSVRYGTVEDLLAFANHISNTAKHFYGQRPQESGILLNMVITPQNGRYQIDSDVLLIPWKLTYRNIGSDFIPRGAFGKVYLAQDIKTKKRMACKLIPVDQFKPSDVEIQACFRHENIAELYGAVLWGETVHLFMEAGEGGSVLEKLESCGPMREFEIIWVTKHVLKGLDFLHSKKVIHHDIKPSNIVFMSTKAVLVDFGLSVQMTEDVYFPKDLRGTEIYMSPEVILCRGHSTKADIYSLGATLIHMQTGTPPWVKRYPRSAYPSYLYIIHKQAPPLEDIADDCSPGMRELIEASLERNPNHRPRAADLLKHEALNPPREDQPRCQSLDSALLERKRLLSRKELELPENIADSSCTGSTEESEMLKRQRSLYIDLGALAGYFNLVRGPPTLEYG

On to `CC(C)(C)C(=O)N1N=CC[C@H]1c1ccccc1` [GSK′963], for which the remaining activity at 10 µM came out at 100% on MST1/STK4 (setting [1]); 101% on MST1/STK4 (setting [2]); 100% at MST1/STK4 (setting [3]); 96.1% on STK25/YSK1 (setting [1]); 96.7% at STK25/YSK1 (setting [2]); 95.4% at STK25/YSK1 (setting [3]). The remaining activity at 10 µM on ASK1/MAP3K5 (setting [1]) came out at 98.8%; at ASK1/MAP3K5 (setting [2]), 99.4%; at ASK1/MAP3K5 (setting [3]), 98.1%; on COT1/MAP3K8 (setting [1]), 87.1%; on COT1/MAP3K8 (setting [2]) it was 86.6%; at COT1/MAP3K8 (setting [3]), 87.5%. The remaining activity at 10 µM at TGFBR2 (setting [1]) amounted to 116%; at TGFBR2 (setting [2]), 119%; on TGFBR2 (setting [3]), 114%; on MKK4 (setting [1]), 105%; at MKK4 (setting [2]) it was 105%; at MKK4 (setting [3]), 105%.
